Where two headings read alike, the source gives them in different places.
How the values were obtained:
[1] = tested on: spontaneously converted astrocytes collected from the cortex of a newborn rat; test: Cytotoxicity on the spontaneously converted astrocytes (qualitative assay, microscopic observation); format: cell-based; conditions: microscopic observation each day for four days, 50 μM to 400 nM
Text: a) Spontaneously converted astrocytes collected from the cortex of a newborn rat (see Bochelen D., Langley K., Adamczyk M., Kupfberg, Hor F., Vincendon G., Mersel M., J. Neurosci. Res., 2000, 62, 99-111), that is to say from normal glial cells maintained in culture and that became able to divide to infinity. These cells are not able to induce tumors after implantation in the rat but did avoid the cell cycle regulation. This cell line was maintained in culture in culture flasks in the presence of 5 mL of culture medium MH5 comprising 70% of MEM and 30% of a Hanks solution. This medium was supplemented with 5% of foetal calf serum. The culture medium was changed every three days. Cells were incubated at 37° C. in an air/CO2 atmosphere (95/5). For the experiments, a replanting was effected after removal of the culture medium, cells were treated for 4 to 5 minutes with trypsine (0.1%). The cell suspension was then placed in 5 mL of fresh medium, 50 μL of this solution were collected to perform the cell counting. […]
These assays conducted on compounds 3.28, 3.8, 3.5. […] The effect was evaluated by simple microscopic observation of the culture plates. […] The evaluated compounds did present an activity at a very low concentration. An activity could be observed after 72 h to 96 h (days 3 and 4) for the whole evaluated compounds.

[2] = tested on: C6 Cells from glioblastomas of rats; test: Cytotoxicity on the C6 cell line (quantitative neutral red assay)
Protocol: c) C6 Cells from glioblastomas of rats. […] These cells were cultured in MEM (Minimum Essential Medium), in the presence of 5% of foetal calf serum. Incubation was conducted at 37° C. in a 5% CO2 humidity atmosphere.
The cells were seeded in 96-well plates with 2000 cells per well in 200 μL of MEM/HANKS (70/30) in the presence of 5% of foetal calf serum. The compounds were added 24 hours after seeding. […] The concentration range used did vary from 50 μM to 24 nM by conducting ½ to ½ serial dilutions.
(§1) The activity evaluation of the test compounds was effected by measuring the cell viability in the culture wells, by means of a so called “neutral red assay” that did consist in contacting the cells with this dye, the accumulation of which in cell acidic compartments does express the health status of the latter. The neutral red test makes it thus possible to know the cytotoxic effect of a compound. The dye was used from a 0.33% stock solution in PBS. 20 μL of such solution were added to each culture well containing 300 μL of culture medium and the plates were incubated at 37° C. for three hours.
(§2) The supernatant of each well was then removed by succion. […] The wells were evacuated again, and the cells were lyzed, thus salting out the dye in the well, this procedure being effected with a solution made of ethanol, water and acetic acid (50/49/1). The colour intensity obtained directly indicated the cell viability. It was quantified by measuring the absorbance at 570 nm. This measure was effected on a 96-well plate reader, of BIO-RAD Microplate reader 550 type, providing an optical density value (OD) for each well of culture.
(§3) Thereafter IC50 values were therefore determined by establishing the OD well X/OD control ratio, thus directly providing the percentage of living cells in the medium.
The quantitative evaluation of the cytotoxicity of the compounds of the invention against modified cells that are said to be “cancerous” was conducted on the C6 cell line. Plates were seeded at a cell density of 2000 cells per well. This density enabled to obtain a 80% confluence after a 4 day-culture for non treated cells.

[3] = tested on: astrocyte primary cultures from the cortex of a newborn rat; test: Cytotoxicity on the non modified astrocytes, so called healthy cells (quantitative assay); conditions: second day after addition, 50 μM to 24 nM
Protocol: (§4) b) Astrocyte primary cultures from the cortex of a newborn rat for testing the so called “healthy cells”. This primary culture was conducted based on the brain tissue removed from the cortex of a newborn rat. After homogeneization, trypsinization and centrifugation, cells were distributed in 24-well plates for about 3 weeks. Oligodendrocytes were then removed by stirring the culture plates for 30 minutes and by changing the supernatant with fresh medium.
as §1, §2, §3
(§5) Cytotoxicity evaluation assays against the so called “healthy cells” were conducted on astrocyte primary cultures collected from the cortex of newborn rats, mimetizing the physiology of a so called “healthy cell”, i.e. a non cancerous cell.
(§6) These cells being unmodified, their division time was very long (about 50 hours). It was thus necessary to choose a higher initial seeding concentration (5000 cells per well). The compounds (1) were introduced only after 96 hours so as to allow the cells to adhere to the well walls and to divide once or twice. The concentration range for the test compounds (1) varied from 50 μM to 24 nm as for the C6 cells. Controls were carried out the second day following the introduction of the compounds (1). Two plates were made available for each measurement.

[4] = tested on: astrocyte primary cultures from the cortex of a newborn rat
Protocol: as §4, §1, §2, §3, §5, §6

[5] = C6 cell line, high concentration

Molecule: CC1(C)O[C@H]2[C@@H]([C@H]3COC(C)(C)O3)O[P@@](=O)(c3ccccc3)[C@@H](NCc3ccccc3)[C@H]2O1 [Compound 3.28, 4-(2,2-Dimethyl-[1,3]dioxolan-4-yl)-2,2-dimethyl-2-oxo-2-phenyl-tetrahydro-6λ*5*-[1,3]dioxolo[4,5-d][1,2]oxaphosphinan-3-aminobenzyl]
- cytotoxic activity on spontaneously converted astrocytes [1]: cytotoxic activity
- IC50 ([2]; Rattus norvegicus, C6, 48 h): 800 to 5000 nM
- cytotoxicity on healthy cells (cell viability) [3]: absence of cytotoxicity

Molecule: O=[N+]([O-])c1ccc([P@]2(=O)O[C@H](COCc3ccccc3)[C@@H](OCc3ccccc3)[C@H](OCc3ccccc3)C2O)cc1 (single isomer, unassigned) [Compound 3.52, 4,5-bis-benzyloxy-6-benzyloxymethyl-2-(p-nitro)phenyl-2-oxo-2λ^5-[1,2]oxaphosphinan-3-ol]
- IC50 ([2]; Rattus norvegicus, C6, 48 h): 100 to 5000 nM
- cytotoxicity on healthy cells (cell viability) [3]: absence of cytotoxicity

Molecule: Cc1ccc(N[C@H]2[C@H]3OC(C)(C)O[C@H]3[C@@H]([C@H]3COC(C)(C)O3)O[P@@]2(=O)c2ccccc2)cc1 [Compound 3.30b, 4-(2,2-Dimethyl-[1,3]dioxolan-4-yl)-2,2-dimethyl-2-oxo-2-phenyl-tetrahydro-6λ*5*-[1,3]dioxolo[4,5-d][1,2]oxaphosphinan-3-aminotoluyl]
- cytotoxicity on healthy cells (cell viability) [3]: absence of cytotoxicity

Molecule: Cc1ccc(N[C@H]2[C@H]3OC(C)(C)O[C@H]3[C@@H]([C@H]3COC(C)(C)O3)O[P@@]2(=O)c2ccccc2)cc1 [Compound 3.30a, 4-(2,2-Dimethyl-[1,3]dioxolan-4-yl)-2,2-dimethyl-2-oxo-2-phenyl-tetrahydro-6λ*5*-[1,3]dioxolo[4,5-d][1,2]oxaphosphinan-3-aminotoluyl]
- mortality of C6 cells when highly concentrated [2, 5]: total mortality
- IC50 ([2]; Rattus norvegicus, C6, 48 h): 500 to 5000 nM
- cytotoxicity on healthy cells (cell viability) [3]: did not show any significative effect

Molecule: CC1(C)O[C@H]2[C@@H]([C@H]3COC(C)(C)O3)O[P@@](=O)(c3ccccc3)[C@@H](Oc3ccc([N+](=O)[O-])cc3)[C@H]2O1 [Compound 3.9a, 4-(2,2-Dimethyl-[1,3]dioxolan-4-yl)-2,2-dimethyl-2-oxo-2-phenyl-tetrahydro-6λ*5*-[1,3]dioxolo[4,5-d][1,2]oxaphosphinan-3-oxy-p-nitrophenyl]
- IC50 ([2]; Rattus norvegicus, C6, 48 h): 400 to 1000 nM

Molecule: 6-(1,2-dihydroxy-ethyl)-2,2-dimethyl-2-oxo-2-diethoxymethyl-tetrahydro-6λ*5*-[1,3]dioxolo[4,5-d][1,2]oxaphosphinan-3-tosyl [Compound 3.6]
- IC50 ([2]; C6 cell line, neutral red cell viability, measures conducted on day 2 or 3): 1500 nM

Molecule: CCOC(OCC)P1(=O)O[C@H]([C@H]2COC(C)(C)O2)[C@@H]2OC(C)(C)O[C@@H]2C1O (some centres unmarked) [Compound 3.19a, 4-(2,2-Dimethyl-[1,3]dioxolan-4-yl)-2,2-dimethyl-2-oxo-2-diethoxymethyl-tetrahydro-6λ*5*-[1,3]dioxolo[4,5-d][1,2]oxaphosphinan-3-ol]
- cytotoxic activity on spontaneously converted astrocytes [1]: cytotoxic activity

Molecule: O=[P@@]1(c2ccccc2)O[C@H](COCc2ccccc2)[C@@H](OCc2ccccc2)[C@H](OCc2ccccc2)C1O (some centres unmarked) [Compound 3.48a, 4,5-bis-benzyloxy-6-benzyloxymethyl-2-phenyl-2-oxo-2λ^5-[1,2]oxaphosphinan-3-ol]
- IC50 ([2]; Rattus norvegicus, C6, 48 h): 1000 to 2000 nM

Molecule: CC1(C)O[C@H]2[C@@H]([C@H]3COC(C)(C)O3)O[P@@](=O)(c3ccccc3)[C@@H](OC(=N)C(Cl)(Cl)Cl)[C@H]2O1 [Compound 3.57, 4-(2,2-Dimethyl-[1,3]dioxolan-4-yl)-2,2-dimethyl-2-oxo-2-phenyl-tetrahydro-6λ*5*-[1,3]dioxolo[4,5-d][1,2]oxaphosphinan-3-imidate]
- cytotoxicity on healthy cells (cell viability) [4]: did not show any significative effect
- cell death of healthy cells ([4]; rat): ≤ 20%
- mortality of C6 cells when highly concentrated [2]: total mortality
- IC50 ([2]; Rattus norvegicus, C6, 48 h): 100 to 5000 nM

Molecule: COc1ccc([P@]2(=O)O[C@H](COCc3ccccc3)[C@@H](OCc3ccccc3)[C@H](OCc3ccccc3)C2O)cc1 (some centres unmarked) [Compound 3.51a, 4,5-bis-benzyloxy-6-benzyloxymethyl-2-(p-methoxy)phenyl-2-oxo-2λ^5-[1,2]oxaphosphinan-3-ol]
- mortality of C6 cells when highly concentrated [2, 5]: total mortality
- IC50 ([2]; Rattus norvegicus, C6, 48 h): 100 to 5000 nM
- cytotoxicity on healthy cells (cell viability) [3]: did not show any significative effect

From patent US8383609B2, “Phosphorus containing heterocyclic compounds, sugar analogues, and compositions having anti-cancer activity containing the same” (Centre National de la Recherche Scientifique, priority 2007, dated 2013)
